Assay: logP by chromatography, internally standardized with toluene and triphenylene
Type: physicochemical
Conditions: pH = 7
Method: Microblends of herbicides were prepared using melts of mixtures of nonionic block copolymer and ethoxylated surfactants. Specifically, tristyrylphenol etoxylate (Soprophor BSU, Rhodia) was used in combination with Pluronic P123 (PEO20-PPO69-PEO20), The list of the herbicides and corresponding log P values (the log P values were measured according procedure described by Donovan and Pescatore, J. Chromatography A 2002, 952, 47-61) are presented in Table 24. All log P values were measured at pH 7, except for clethodim, measured at pH 2. First, a stock blend of Pluronic P123 and Soprophor BSU was prepared by melting together 50 g of Pluronic P123 with 50 g of Soprophor BSU at 70° C. to form a clear, homogeneous melt. Composition of the copolymer/surfactant mixture was P123:Soprophor=1:1 by weight. […] The mixtures were heated at 70° C. for 10 min and shaken.

Molecule	logP Average
COP(=S)(OC)Oc1c(Cl)cc(C)cc1Cl [Tolclofos-methyl]	4.418
Trisulfuron-methyl	0.510
